pIC50: −log10 of the molar value.
Test system: 463943-066-T-J2-PDC complex spheroid growth
Assay: Anticancer human tumor 463943-066-T-J2-PDC patient-derived colon adenocarcinoma cell line growth inhibition [Asc]
Conditions: for pIC50: curve of first compound; for viability, T/C: stronger effect = lower value
Outline: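 Complex solid-tumor spheroids incorporating human endothelial and mesenchymal stem cells received single agents or combinations over half-log dilution ranges anchored to clinical Cmax.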

[1] = second compound 0.00949 µM, first compound 0.0316 µM
[2] = second compound 0.00949 µM, first compound 0.1 µM
[3] = second compound 0.00949 µM, first compound 0.316 µM
[4] = second compound 0.00949 µM, first compound 1 µM
[5] = second compound 0.00949 µM, first compound 3.16 µM
[6] = second compound 0.00949 µM, first compound 10 µM
[7] = second compound 0.03 µM, first compound 0.0316 µM
[8] = second compound 0.03 µM, first compound 0.1 µM
[9] = second compound 0.03 µM, first compound 0.316 µM
[10] = second compound 0.03 µM, first compound 1 µM
[11] = second compound 0.03 µM, first compound 3.16 µM
[12] = second compound 0.03 µM, first compound 10 µM
[13] = second compound 0.0949 µM, first compound 0.0316 µM
[14] = second compound 0.0949 µM, first compound 0.1 µM
[15] = second compound 0.0949 µM, first compound 0.316 µM
[16] = second compound 0.0949 µM, first compound 1 µM
[17] = second compound 0.0949 µM, first compound 3.16 µM
[18] = second compound 0.0949 µM, first compound 10 µM
[19] = second compound 0.3 µM, first compound 0.0316 µM
[20] = second compound 0.3 µM, first compound 0.1 µM
[21] = second compound 0.3 µM, first compound 0.316 µM
[22] = second compound 0.3 µM, first compound 1 µM
[23] = second compound 0.3 µM, first compound 3.16 µM
[24] = second compound 0.3 µM, first compound 10 µM
[25] = second compound 0.949 µM, first compound 0.0316 µM
[26] = second compound 0.949 µM, first compound 0.1 µM
[27] = second compound 0.949 µM, first compound 0.316 µM
[28] = second compound 0.949 µM, first compound 1 µM
[29] = second compound 0.949 µM, first compound 3.16 µM
[30] = second compound 0.949 µM, first compound 10 µM
[31] = second compound 3 µM, first compound 0.0316 µM
[32] = second compound 3 µM, first compound 0.1 µM
[33] = second compound 3 µM, first compound 0.316 µM
[34] = second compound 3 µM, first compound 1 µM
[35] = second compound 3 µM, first compound 3.16 µM
[36] = second compound 3 µM, first compound 10 µM
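Also: compound exposure lasted 7 days.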
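For viability, T/C in this document: 100% = DMSO vehicle control wells.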

C#Cc1c(F)ccc2cc(O)cc(-c3ncc4c(N5CC6CCC(C5)N6)nc(OCC56CCCN5CC(F)C6)nc4c3F)c12 (stereo not drawn) + CCN1C(C(=O)NC23CCC(C(=O)O)(CC2)CC3)C(c2cccc(Cl)c2F)C2(C(=O)Nc3cc(Cl)ccc32)C12CCCCC2
pIC50 (second compound 0.00949 µM): < 5.00
pIC50 (second compound 0.03 µM): < 5.00
pIC50 (second compound 0.0949 µM): < 5.00
pIC50 (second compound 0.3 µM): < 5.00
pIC50 (second compound 0.949 µM): < 5.00
pIC50 (second compound 3 µM): < 5.00
viability, T/C [1]: 94.4%
viability, T/C [2]: 99.3%
viability, T/C [3]: 94.3%
viability, T/C [4]: 101%
viability, T/C [5]: 108%
viability, T/C [6]: 88.3%
viability, T/C [7]: 102%
viability, T/C [8]: 90.5%
viability, T/C [9]: 94.1%
viability, T/C [10]: 101%
viability, T/C [11]: 103%
viability, T/C [12]: 82.5%
viability, T/C [13]: 91.5%
viability, T/C [14]: 88.8%
viability, T/C [15]: 94.2%
viability, T/C [16]: 93%
viability, T/C [17]: 91.7%
viability, T/C [18]: 94.1%
viability, T/C [19]: 88.4%
viability, T/C [20]: 81.6%
viability, T/C [21]: 87%
viability, T/C [22]: 83%
viability, T/C [23]: 83.1%
viability, T/C [24]: 85.4%
viability, T/C [25]: 74%
viability, T/C [26]: 73%
viability, T/C [27]: 78.8%
viability, T/C [28]: 77.9%
viability, T/C [29]: 75.3%
viability, T/C [30]: 71.2%
viability, T/C [31]: 70%
viability, T/C [32]: 71.8%
viability, T/C [33]: 70.5%
viability, T/C [34]: 73.3%
viability, T/C [35]: 72.1%
viability, T/C [36]: 67.6%

C=C(F)C(=O)N1CCN(c2nc(OCC3CCCN3C)nc3c2CCN(c2cccc4cccc(Cl)c24)C3)CC1CC#N (stereo not drawn) + CCN1C(C(=O)NC23CCC(C(=O)O)(CC2)CC3)C(c2cccc(Cl)c2F)C2(C(=O)Nc3cc(Cl)ccc32)C12CCCCC2
pIC50 (second compound 0.00949 µM): 5.22
pIC50 (second compound 0.03 µM): 5.20
pIC50 (second compound 0.0949 µM): 5.20
pIC50 (second compound 0.3 µM): 5.22
pIC50 (second compound 0.949 µM): 5.20
pIC50 (second compound 3 µM): 5.24
viability, T/C [1]: 97.4%
viability, T/C [2]: 92.9%
viability, T/C [3]: 103%
viability, T/C [4]: 104%
viability, T/C [5]: 91.9%
viability, T/C [6]: 17.2%
viability, T/C [7]: 93.4%
viability, T/C [8]: 93.9%
viability, T/C [9]: 93.1%
viability, T/C [10]: 101%
viability, T/C [11]: 97.3%
viability, T/C [12]: 20.3%
viability, T/C [13]: 91.7%
viability, T/C [14]: 87.3%
viability, T/C [15]: 88.3%
viability, T/C [16]: 97.8%
viability, T/C [17]: 87.3%
viability, T/C [18]: 23.9%
viability, T/C [19]: 82%
viability, T/C [20]: 85.4%
viability, T/C [21]: 83.6%
viability, T/C [22]: 90.5%
viability, T/C [23]: 79.1%
viability, T/C [24]: 26.3%
viability, T/C [25]: 71.9%
viability, T/C [26]: 81%
viability, T/C [27]: 76%
viability, T/C [28]: 83.6%
viability, T/C [29]: 78.1%
viability, T/C [30]: 30.8%
viability, T/C [31]: 70.8%
viability, T/C [32]: 71.5%
viability, T/C [33]: 74%
viability, T/C [34]: 78.9%
viability, T/C [35]: 77.5%
viability, T/C [36]: 28%

C=CC(=O)N1CCN(c2nc(=O)n(-c3c(C)ccnc3C(C)C)c3nc(-c4c(O)cccc4F)c(F)cc23)C(C)C1 (stereo not drawn) + CCN1C(C(=O)NC23CCC(C(=O)O)(CC2)CC3)C(c2cccc(Cl)c2F)C2(C(=O)Nc3cc(Cl)ccc32)C12CCCCC2
pIC50 (second compound 0.00949 µM): < 5.00
pIC50 (second compound 0.03 µM): < 5.00
pIC50 (second compound 0.0949 µM): < 5.00
pIC50 (second compound 0.3 µM): < 5.00
pIC50 (second compound 0.949 µM): < 5.00
pIC50 (second compound 3 µM): < 5.00
viability, T/C [1]: 94.4%
viability, T/C [2]: 96.5%
viability, T/C [3]: 93%
viability, T/C [4]: 107%
viability, T/C [5]: 104%
viability, T/C [6]: 98%
viability, T/C [7]: 108%
viability, T/C [8]: 96.8%
viability, T/C [9]: 99.9%
viability, T/C [10]: 103%
viability, T/C [11]: 104%
viability, T/C [12]: 88.4%
viability, T/C [13]: 92.4%
viability, T/C [14]: 88.6%
viability, T/C [15]: 91%
viability, T/C [16]: 93.2%
viability, T/C [17]: 97.3%
viability, T/C [18]: 86.3%
viability, T/C [19]: 84.4%
viability, T/C [20]: 84.8%
viability, T/C [21]: 86.2%
viability, T/C [22]: 85.5%
viability, T/C [23]: 86.7%
viability, T/C [24]: 80.3%
viability, T/C [25]: 76.5%
viability, T/C [26]: 77%
viability, T/C [27]: 74%
viability, T/C [28]: 77%
viability, T/C [29]: 78.2%
viability, T/C [30]: 77%
viability, T/C [31]: 71.7%
viability, T/C [32]: 73.3%
viability, T/C [33]: 75.9%
viability, T/C [34]: 77.6%
viability, T/C [35]: 72.5%
viability, T/C [36]: 72.5%

CNC(C)C(=O)NC1CN(S(=O)(=O)c2cccc(S(=O)(=O)N3CCC4CCC(C(=O)NC(c5ccccc5)c5ccccc5)N4C(=O)C(NC(=O)C(C)NC)C3)c2)CCC2CCC(C(=O)NC(c3ccccc3)c3ccccc3)N2C1=O (stereo not drawn) + CCN1C(C(=O)NC23CCC(C(=O)O)(CC2)CC3)C(c2cccc(Cl)c2F)C2(C(=O)Nc3cc(Cl)ccc32)C12CCCCC2
pIC50 (second compound 0.00949 µM): < 6.00
pIC50 (second compound 0.03 µM): < 6.00
pIC50 (second compound 0.0949 µM): < 6.00
pIC50 (second compound 0.3 µM): < 6.00
pIC50 (second compound 0.949 µM): < 6.00
pIC50 (second compound 3 µM): < 6.00
viability, T/C (second compound 0.00949 µM, first compound 0.00316 µM): 96.9%
viability, T/C (second compound 0.00949 µM, first compound 0.01 µM): 93.3%
viability, T/C [1]: 99.3%
viability, T/C [2]: 93.7%
viability, T/C [3]: 95.9%
viability, T/C [4]: 86.8%
viability, T/C (second compound 0.03 µM, first compound 0.00316 µM): 103%
viability, T/C (second compound 0.03 µM, first compound 0.01 µM): 96.6%
viability, T/C [7]: 89.4%
viability, T/C [8]: 93.2%
viability, T/C [9]: 95%
viability, T/C [10]: 85%
viability, T/C (second compound 0.0949 µM, first compound 0.00316 µM): 94.2%
viability, T/C (second compound 0.0949 µM, first compound 0.01 µM): 93.2%
viability, T/C [13]: 81.9%
viability, T/C [14]: 89.3%
viability, T/C [15]: 91.8%
viability, T/C [16]: 86.1%
viability, T/C (second compound 0.3 µM, first compound 0.00316 µM): 83.8%
viability, T/C (second compound 0.3 µM, first compound 0.01 µM): 81.1%
viability, T/C [19]: 82.1%
viability, T/C [20]: 81.9%
viability, T/C [21]: 84.6%
viability, T/C [22]: 81%
viability, T/C (second compound 0.949 µM, first compound 0.00316 µM): 73.1%
viability, T/C (second compound 0.949 µM, first compound 0.01 µM): 85.1%
viability, T/C [25]: 76.1%
viability, T/C [26]: 75.8%
viability, T/C [27]: 76.8%
viability, T/C [28]: 71.5%
viability, T/C (second compound 3 µM, first compound 0.00316 µM): 71.1%
viability, T/C (second compound 3 µM, first compound 0.01 µM): 73.2%
viability, T/C [31]: 74.7%
viability, T/C [32]: 69.3%
viability, T/C [33]: 75.5%
viability, T/C [34]: 69.4%
